One data set has as its system rhinovirus A2. Put plainly: Antirhinoviral activity against Human rhinovirus 2 infected in human HeLa cells assessed as inhibition of virus-induced cytopathic effect after 5 days by MTT assay. It counts as functional, organism-based. The note with it: Rhinovirus A, 120 h.
Data set [1] deals with Human rhinovirus sp. Put plainly: Antirhinoviral activity against Human rhinovirus 14 infected in human HeLa cells assessed as inhibition of virus-induced cytopathic effect after 5 days by MTT assay. It counts as functional, organism-based. The note with it: Human rhinovirus sp., 14, HeLa, 120 h.
Data set [2] relates to Human rhinovirus sp. Kind of data set: Antirhinoviral activity against major receptor-resistant Human rhinovirus infected in human HeLa cells assessed as inhibition of virus-induced cytopathic effect after 5 days by MTT assay. The note with it: 120 h. The data set is classed as functional, organism-based. On the technique in general: Protection from cytopathic effect is a common read-out in antiviral testing.

Data set [3] relates to Human rhinovirus sp. Kind of data set: Ratio of EC50 for Human rhinovirus B to EC50 for Human rhinovirus A. The data set is classed as functional.
In data set [4] the test system is Human rhinovirus sp. Kind of data set: Antirhinoviral activity against antiviral-resistant Human rhinovirus B infected in human HeLa cells assessed as inhibition of virus-induced cytopathic effect after 5 days by MTT assay. The data set is classed as functional, organism-based. The note with it: 120 h.
The test system of data set [5] is Human rhinovirus sp. Kind of data set: Antirhinoviral activity against Human rhinovirus B infected in human HeLa cells assessed as inhibition of virus-induced cytopathic effect after 5 days by MTT assay. The data set is classed as functional, organism-based. The note with it: 120 h.
In data set [6] the test system is Human rhinovirus sp. Kind of data set: Antirhinoviral activity against minor receptor-resistant Human rhinovirus infected in human HeLa cells assessed as inhibition of virus-induced cytopathic effect after 5 days by MTT assay. It counts as functional, organism-based. The note with it: 120 h.
Data set [7] concerns Human rhinovirus sp. Kind of data set: Antirhinoviral activity against Human rhinovirus A infected in human HeLa cells assessed as inhibition of virus-induced cytopathic effect after 5 days by MTT assay. The data set is classed as functional, organism-based. The note with it: 120 h.
The test system of data set [8] is Human rhinovirus sp. Kind of data set: Antirhinoviral activity against antiviral-resistant Human rhinovirus A infected in human HeLa cells assessed as inhibition of virus-induced cytopathic effect after 5 days by MTT assay. It counts as functional, organism-based. The note with it: 120 h.
The test system of data set [9] is Human rhinovirus sp. Kind of data set: Ratio of EC50 for antiviral-resistant Human rhinovirus B to EC50 for antiviral-resistant Human rhinovirus A. The data set is classed as functional.
For data set [10], the system named is Human rhinovirus sp. Put plainly: Ratio of EC50 for major receptor-resistant Human rhinovirus B to EC50 for minor receptor-resistant Human rhinovirus A. The data set is classed as functional.
Data set [11] in a line: AUC (0 to infinity) in human at 400 mg administered as single dose. The note with it: plasma.
Data set [12] can be described thus: in vivo. The note with it: male, Lister hooded, rat, plasma, po, 50 mg/kg.
Description: AUC in male lister hooded rat at 50 mg/kg, po
A short description of data set [13]: in vivo. The note with it: female, Lister hooded, rat, po, 50 mg/kg.
Description: Oral bioavailability in female lister hooded rat at 50 mg/kg administered as single dose
Data set [14] in a line: Half life in human at 400 mg administered as single dose. The note with it: in vivo.
Data set [15] in a line: Cmax in human at 400 mg administered as single dose. The note with it: in vivo.
A short description of data set [16]: in vivo. The note with it: male, Lister hooded, rat, po, 50 mg/kg.
Description: Cmax in male lister hooded rat at 50 mg/kg, po
Data set [17] in a line: Half life in male beagle dog at 50 mg/kg, po. The note with it: in vivo.
Data set [18] in a line: Tmax in human at 400 mg administered as single dose. The note with it: in vivo.
Data set [19] can be described thus: in vivo. The note with it: female, Lister hooded, rat, plasma, po, 50 mg/kg.
Description: AUC in female lister hooded rat at 50 mg/kg, po
The nature of data set [20]: in vivo. The note with it: male, beagle, dog, plasma, po, 50 mg/kg.
Description: AUC in male beagle dog at 50 mg/kg, po
Data set [21] is described as follows: in vivo. The note with it: female, beagle, dog, plasma, po, 50 mg/kg.
Description: AUC in female beagle dog at 50 mg/kg, po
A short description of data set [22]: in vivo. The note with it: female, beagle, dog, po, 50 mg/kg.
Description: Tmax in female beagle dog at 50 mg/kg, po
A short description of data set [23]: in vivo. The note with it: male, Lister hooded, rat, po, 50 mg/kg. The source holds these as a separate data set.
Description: Tmax in male lister hooded rat at 50 mg/kg, po
Data set [24] can be described thus: in vivo. The note with it: female, Lister hooded, rat, po, 50 mg/kg. This is another data set of the same source.
Description: Cmax in female lister hooded rat at 50 mg/kg, po
Data set [25] can be described thus: in vivo. The note with it: male, beagle, dog, po, 50 mg/kg.
Description: Tmax in male beagle dog at 50 mg/kg, po
A short description of data set [26]: Half life in male lister hooded rat at 50 mg/kg, po. The note with it: in vivo.
Data set [27] can be described thus: Half life in female lister hooded rat at 50 mg/kg, po. The note with it: in vivo.
A short description of data set [28]: in vivo. The note with it: female, beagle, dog, po, 50 mg/kg. The source holds these as a separate data set.
Description: Cmax in female beagle dog at 50 mg/kg, po
Data set [29] in a line: in vivo. The note with it: male, beagle, dog, po, 50 mg/kg. The source holds these as a separate data set.
Description: Cmax in male beagle dog at 50 mg/kg, po
A short description of data set [30]: in vivo. The note with it: male, Lister hooded, rat, po, 50 mg/kg. This is another data set of the same source.
Description: Oral bioavailability in male lister hooded rat at 50 mg/kg administered as single dose
Data set [31] in a line: Half life in female beagle dog at 50 mg/kg, po. The note with it: in vivo.
Data set [32] is described as follows: in vivo. The note with it: female, Lister hooded, rat, po, 50 mg/kg. This is another data set of the same source.
Description: Tmax in female lister hooded rat at 50 mg/kg, po

In brackets after ≈: the same amount, converted by molar mass.

Here are results for ten molecules from ChEMBL document CHEMBL2062441, “An Orally Available 3-Ethoxybenzisoxazole Capsid Binder with Clinical Activity against Human Rhinovirus” (ACS Med Chem Lett, 2012).

As to `CCCOc1noc2cc(OCCC3CCN(c4ccc(C)nn4)CC3)ccc12`, the EC50 (commonly the concentration that produces a half-maximal response) in the data set on rhinovirus A2 was 3 ng/mL (≈ 0.00757 µM); in the data set with Human rhinovirus sp. [1] it was 29 ng/mL (≈ 0.0731 µM).

For the molecule `CCCc1noc2cc(OCCC3CCN(c4ccc(C)nn4)CC3)ccc12`, the EC50 in the data set on rhinovirus A2 amounted to 84 ng/mL (≈ 0.221 µM); in the data set on Human rhinovirus sp. [1] it was 13 ng/mL (≈ 0.0342 µM).

Take `CCOc1noc2cc(OCCC3CCN(c4ccc(Cl)nn4)CC3)ccc12`: the results for the EC50 in the data set on rhinovirus A2 and in the data set on Human rhinovirus sp. [1] were 3 ng/mL (≈ 0.00745 µM) and 19 ng/mL (≈ 0.0472 µM), respectively.

Take `CCOC(=O)/C=C/[C@H](C[C@@H]1CCNC1=O)NC(=O)[C@@H](CC(=O)[C@@H](NC(=O)c1cc(C)on1)C(C)C)Cc1ccc(F)cc1` [RUPINTRIVIR]: the EC50 in the data set on Human rhinovirus sp. [2] turned out to be 1.5 ng/mL (≈ 0.00251 µM); with Human rhinovirus sp. [4] it was 2 ng/mL (≈ 0.00334 µM); in the data set with Human rhinovirus sp. [5], 1.2 ng/mL (≈ 0.002 µM); with Human rhinovirus sp. [6], 3 ng/mL (≈ 0.00501 µM); with Human rhinovirus sp. [7] it was 2 ng/mL (≈ 0.00334 µM); with Human rhinovirus sp. [8], 1.2 ng/mL (≈ 0.002 µM). Also, the “Ratio EC50” value with Human rhinovirus sp. [3] is on record as 1.7; in the data set on Human rhinovirus sp. [9], 1.7; in the data set with Human rhinovirus sp. [10], 2.

Consider `CCOc1noc2cc(OCCCC3CCN(c4ccc(Cl)nn4)CC3)ccc12`, for which the EC50 in the data set on rhinovirus A2 stood at 3 ng/mL (≈ 0.0072 µM); in the data set with Human rhinovirus sp. [1], 9 ng/mL (≈ 0.0216 µM).

For the molecule `CCc1noc2cc(OCCC3CCN(c4ccc(C)nn4)CC3)ccc12`, the EC50 in the data set on rhinovirus A2 was determined as 24 ng/mL (≈ 0.0655 µM); with Human rhinovirus sp. [1], 88 ng/mL (≈ 0.24 µM).

Turning to `Cc1cc(CCCOc2c(C)cc(-c3noc(C(F)(F)F)n3)cc2C)on1` [PLECONARIL], the EC50 in the data set with Human rhinovirus sp. [2] stood at 49.2 ng/mL (≈ 0.129 µM); in the data set on Human rhinovirus sp. [4], 33.8 ng/mL (≈ 0.0886 µM); in the data set with Human rhinovirus sp. [5] it was 224 ng/mL (≈ 0.588 µM); in the data set on Human rhinovirus sp. [6] it was 23.2 ng/mL (≈ 0.0608 µM); in the data set on Human rhinovirus sp. [7], 37.4 ng/mL (≈ 0.0981 µM); with Human rhinovirus sp. [8], 388 ng/mL (≈ 1.02 µM). Besides, the “Ratio EC50” value in the data set with Human rhinovirus sp. [3] is recorded as 6; in the data set with Human rhinovirus sp. [9], 11.5; in the data set on Human rhinovirus sp. [10] it was 2.1.

In the case of `CCOC(=O)c1ccc(OCCC2CCN(c3ccc(C)nn3)CC2)cc1` [PIRODAVIR], the EC50 in the data set with Human rhinovirus sp. [2] worked out at 5.6 ng/mL (≈ 0.0152 µM); in the data set with rhinovirus A2, 3 ng/mL (≈ 0.00812 µM); with Human rhinovirus sp. [4], 2.6 ng/mL (≈ 0.00704 µM); in the data set on Human rhinovirus sp. [5] it was 11.1 ng/mL (≈ 0.03 µM); in the data set on Human rhinovirus sp. [6], 2.3 ng/mL (≈ 0.00623 µM); with Human rhinovirus sp. [7], 4 ng/mL (≈ 0.0108 µM). For the same molecule, the figures for the half-maximal effective concentration (EC50) in the data set on Human rhinovirus sp. [8] and in the data set with Human rhinovirus sp. [1] were 20.6 ng/mL (≈ 0.0558 µM) and 4 ng/mL (≈ 0.0108 µM), respectively. Also, the results for the “Ratio EC50” value in the data set on Human rhinovirus sp. [3], in the data set on Human rhinovirus sp. [9] and with Human rhinovirus sp. [10] were 2.8, 8.1 and 2.4, respectively.

Turning to `CCOc1nsc2cc(OCCC3CCN(c4ccc(C)nn4)CC3)ccc12`, the EC50 in the data set on rhinovirus A2 amounted to 3 ng/mL (≈ 0.00753 µM); in the data set on Human rhinovirus sp. [1] it was 29 ng/mL (≈ 0.0728 µM).

As to `CCOc1noc2cc(OCCC3CCN(c4ccc(C)nn4)CC3)ccc12` [VAPENDAVIR], the AUC(0-inf) (in general, the area under the concentration-time curve extrapolated to infinity) in [11] amounted to 13.8 µg·h/mL. The EC50 in the data set with rhinovirus A2 worked out at 1 ng/mL (≈ 0.00261 µM). In addition, the AUC (commonly the area under the concentration-time curve, a measure of exposure) in “in vivo [12]” is 483 µg·h/mL; in “in vivo [19]”, 489 µg·h/mL; in “in vivo [20]” it was 202 µg·h/mL; in the data set “in vivo [21]”, 121 µg·h/mL. Moreover, the bioavailability (commonly the share of a dose that reaches the circulation, judged against a reference dose that is usually intravenous) in the data set “in vivo [13]” is 95%; in “in vivo [30]”, 94%. The half-life (commonly the time needed for the level to fall by half in the phase considered) in data set [14] is 11.8 h; in data set [17], 18.3 h; in [26], 51.6 h; in data set [27] it was 46.4 h; in data set [31], 15.9 h. Also, the Cmax – broadly, the peak of the concentration-time curve – in data set [15] stood at 1890 ng/mL; in the data set “in vivo [16]” it was 22500 ng/mL; in the data set “in vivo [24]”, 17700 ng/mL; in the data set “in vivo [28]” it was 6100 ng/mL; in “in vivo [29]”, 11000 ng/mL. Besides, the Tmax (usually the time at which the peak concentration occurs) in [18] was found to be 1.03 h; in the data set “in vivo [22]”, 7.7 h; in “in vivo [23]”, 16 h; in “in vivo [25]” it was 14.7 h; in “in vivo [32]”, 11.2 h.
